Assay [1] deals with heart-failing hypertensive rats. To be noted: oral NAC treatment; cited from earlier work.
The test system of assay [2] is postoperative atrial fibrillation. The following applies: cited from earlier work.
Assay [3] deals with mouse model of human hypertrophic cardiomyopathy. The following applies: oral NAC treatment; cited from earlier work.
The subject of assay [4] is cardiomyopathic mice with missense LMNA mutation. The following applies: oral NAC treatment; cited from earlier work.
Assay [5] shares this test system. In words: Mouse model carrying a missense LMNA mutation and developing a dilated cardiomyopathy. The class given is in vivo. To be noted: oral treatment, mouse model with missense LMNA mutation.

For `CC(=O)N[C@@H](CS)C(=O)O` [NAC, N-acetylcysteine], the “cardiac structure and function” value in assay [1] was “improves cardiac structure and function”; in assay [4], “improves cardiac structure and function”. The “incidence of postoperative atrial fibrillation (AF)” value in assay [2] (intravenous infusion for 1 h before and 48 h after cardiac surgery, Ozaydin et al. 2008) is reported as “decreased the incidence of postoperative atrial fibrillation”. Also, the post-operative atrial fibrillation result in assay [2] (oral NAC treatment, patients) is given as “prevents post-operative atrial fibrillation”. For the same compound, the established hypertrophy entry in assay [3] is “reverses established hypertrophy”. In assay [5], the “heart structure and function” value is “significantly improved heart structure and function”.

Values taken from patent publication US20110144205A1, “Blood Glutathione as a Biomarker for Screening Asymptomatic Patients at Risk for Heart Failure” (INSERM (Institut National de la Recherche Medicale), priority 2008, published 2011).
